# Measured values taken from patent US20250002863A1, “METHOD OF GENERATING FUNCTIONAL ISLETS FROM PLURIPOTENT STEM CELLS” (HANGZHOU REPROGENIX BIOSCIENCE, INC., priority 2021, published 2025).
# Tested on: pancreatic endocrine progenitors
# Experiment: Addition of small molecules ISX9 and Wnt-C59 at Stage 5, flow cytometry of β cell marker expression in Stage 6 aggregates
# Type: cell-based, human
# Details: added at Stage 5 of the hPSC differentiation protocol (10 μM ISX9, 100 nM Wnt-C59)
# Description: FIG. 5 illustrates establishment of efficient hPSC-islet generation protocol and characterization of hPSC-islets. a, Flow cytometry analysis comparing differentiation efficiencies between planar culture and suspension culture at various stages of the protocol in terms of pancreatic progenitor markers at the end of Stage 4 and β cell markers at the end of Stage 6 (n=5). b, Flow cytometry of β cell marker expression in Stage 6 aggregates without and with addition of small molecules ISX9 and Wnt-C59, individually or in combination at Stage 5, detected at S6D2 (n=4). c, Continuous stage-wise tracking of pancreatic progenitor, endocrine progenitor, and β cell markers by flow cytometry throughout the differentiation protocol (n=3). (d-h) In vitro characterization of stage 6 islet-like aggregates. d, Representative immunostaining of key β cell transcription factors in sectioned Stage 6 aggregates. Scale bar, 50 μm. e, C-peptide secretion of Stage 6 aggregates (n=3) and primary human islets in static glucose stimulation assay (n=2). Glucose stimulation index as indicated above bars. f, Insulin secretion of hPSC-islets in dynamic perifusion assay. g, Electron microscopy depicting ultrastructure of Stage 6 β cell and insulin granules. Scale bar, 2.5 μm. h, Glucagon secretion by hPSC-islets in static glucose stimulation assay. […]
structure (smiles),measurement,value
"O=C(NC1CC1)c1cc(-c2cccs2)on1 [ISX9, Isoxazole 9]",differentiation of pancreatic progenitors / terminal differentiation of pancreatic endocrine progenitors,promoted the terminal differentiation of pancreatic endocrine progenitors
